Measured values from US20230332232A1, “COMPOSITIONS AND METHODS FOR DIAGNOSING AND TREATING A DYSTONIA” (Duke University, priority 2020, published 2023).

System: DYT1 knockin (Tor1a^delGAG/+) murine embryonic fibroblasts (MEFs)
Experiment: microRNA-seq of EVs from DYT1 MEFs treated with drug, compared with non-treated DYT1 MEFs
Assay type: cell-based, mouse
Settings: for Sal Direction Opposite ISRIB?: EVs of DYT1 (Het) MEFs
Description: In addition to proteomic analysis, total RNA-seq and microRNA-seq was performed on RNA isolated in parallel from the EV samples of Cohort 2. As with the proteomic analysis, one biological replicate was prepared from 3 distinct biological clonal cell lines for each genotype. Here, EVs were isolated from conditioned cell culture media by 18 hour ultracentrifugation at 100,000 g. RNA was extracted using the Qiagen miRNeasy Micro Kit (Cat. No. 217084) according to the manufacturer's protocol. Two RNA fractions were extracted from each sample, one enriched in coding and non-coding RNA species>200 nt (“Total RNA” fraction) and one enriched for small RNAs<200 nt (“miRNA” fraction). RNA samples were then submitted to the Duke Sequencing and Genomic Technologies shared resource for further quality control and sequencing. Samples were assessed for concentration and integrity by Qubit and Fragment Analyzer. The miRNA fractions were 4.16 ng/μL-47.57 ng/μL and total RNA fractions were 3.8 ng/μL-43.6 ng/μL. The small RNA library was prepared using the QIAseq miRNA Library Kit (Cat No./ID: 331505) and sequenced on the Illumina NextSeq 500 High-Output platform with 75 bp single-reads. The total RNA library was prepared using the Illumina TruSeq Stranded Total RNA-seq Kit with Ribozero Gold ribosomal RNA reduction and sequenced on the Illumina NovaSeq 6000 S1 platform with 100 bp paired-end reads. Sequencer lane pooling and read depth are attached in the Excel data summary (See “RNA QC” Tab). Data processing and analysis were performed in collaboration with the Duke Genomic Analysis and Bioinformatics shared resource. RNA-seq data was processed using the TrimGalore toolkit (http://www.bioinformatics.babraham.ac.uk/projects/trim_galore), which employs Cutadapt(Martin M. (2011) EMBnet.journal. 17(1):10-12) to trim low quality bases and Illumina sequencing adapters from the 3' end of the reads. Only reads that were 20 nt or longer after trimming were kept for further analysis. Reads were mapped to the mouse genome and transcriptome ([…], et al. (2012) Nucleic Acids Res. 40(Database issue):[…]-97) using the STAR RNA-seq alignment tool (Dobin A, et al. (2013). Bioinformatics. 29(1):15-21). If the reads mapped to a single genomic location, then they were kept for subsequent analysis. Gene counts were compiled using the HTSeq tool (http://www-huber.embl.de/users/anders/HTSeq/). Only genes that had at least 10 reads in any given library were used in subsequent analysis. Normalization and differential expression was carried out using the DESeq26 Bioconductor (Huber W, et al. (2015) Nat Methods. 12(2):115-121) package with the R statistical programming environment (www.r-project.org). […] 694 miRNAs were initially examined with respect to QC, genotype, RTV effects, and ISRIB effects. This subset was the “Full miRNA” subset. FIG. 9A and FIG. 9B show the RTV effect on EV composition in DYT1 cells compared to WT cells for 279 miRNAs, respectively. […] Beginning with the 694 miRNAs in the “Full miRNA” subset, more than 60 molecules were detected in either WT cells or DYT1 cells (WT or Het UMI>60). […] The candidate miRNAs were ranked by the sum of genotype-dependent absolute Z-scores and RTV-induced absolute Z-scores (Abs Z Score Sum (Geno+RTV)). This subset was the “miRNA-Ritonavir Therapeutic Efficacy” subset and contained 201 miRNAs.

[1] = SAL-treated vs non-treated DYT1 (Het) MEF EVs

SMILES: O=C(/C=C/c1ccccc1)NC(NC(=S)Nc1cccc2cccnc12)C(Cl)(Cl)Cl (centres unmarked) [SAL, Salubrinal]
- mmu-miR-147-5p: SALvHet Z Score [1]: −0.16
- mmu-miR-181a-1-3p: SALvHet Z Score [1]: −0.12
- mmu-miR-181a-1-3p: Sal Direction Opposite ISRIB? [1]: yes
- mmu-miR-331-5p: SALvHet Z Score [1]: 0.66
- mmu-miR-668-3p: SALvHet Z Score [1]: 0.34
- mmu-miR-1930-5p: SALvHet Z Score [1]: −1.60
- mmu-miR-1943-5p: SALvHet Z Score [1]: −0.08
- mmu-miR-1955-5p: SALvHet Z Score [1]: 1.06
- mmu-miR-3072-5p: SALvHet Z Score [1]: 0.00
- mmu-miR-3076-3p: SALvHet Z Score [1]: 0.00
- mmu-miR-3088-3p: SALvHet Z Score [1]: −1.34
- mmu-miR-6936-3p: SALvHet Z Score [1]: −0.71
- mmu-miR-6936-3p: Sal Direction Opposite ISRIB? [1]: yes
- mmu-miR-7224-3p: SALvHet Z Score [1]: 0.30
- mmu-miR-7224-3p: Sal Direction Opposite ISRIB? [1]: yes
- mmu-miR-467d-3p: SALvHet Z Score [1]: −0.01
- SALvHet Z Score (mmu-let-7a-1-3p): 0.28
- SALvHet Z Score (mmu-let-7c-2-3p): 0.28
- SALvHet Z Score (mmu-let-7g-5p): −0.16
- SALvHet Z Score (mmu-let-7i-3p): 0.35
- Sal Direction Opposite ISRIB? (mmu-miR-30e-5p): yes
- SALvHet Z Score (mmu-miR-30e-3p): −0.06
- SALvHet Z Score (mmu-miR-15a-5p): 0.17
- SALvHet Z Score (mmu-miR-16-5p): −0.01
- SALvHet Z Score (mmu-miR-17-3p): 0.10
- Sal Direction Opposite ISRIB? (mmu-miR-19b-3p): yes
- SALvHet Z Score (mmu-miR-22-3p): 0.17
- Sal Direction Opposite ISRIB? (mmu-miR-22-3p): yes
- SALvHet Z Score (mmu-miR-23a-3p): 0.05
- SALvHet Z Score (mmu-miR-25-3p): −0.04
- Sal Direction Opposite ISRIB? (mmu-miR-26b-Sp): yes
- SALvHet Z Score (mmu-miR-29b-3p): 0.38
- SALvHet Z Score (mmu-miR-29c-3p): 0.40
- SALvHet Z Score (mmu-miR-30a-5p): −0.09
- SALvHet Z Score (mmu-miR-30b-5p): 0.15
- SALvHet Z Score (mmu-miR-30c-5p (1st line so named)): 0.42
- SALvHet Z Score (mmu-miR-30c-5p (2nd line so named)): 0.07
- Sal Direction Opposite ISRIB? (mmu-miR-30c-5p): yes
- SALvHet Z Score (mmu-miR-31-3p): −0.03
- SALvHet Z Score (mmu-miR-31-5p): −0.14
- SALvHet Z Score (mmu-miR-32-5p): 0.26
- SALvHet Z Score (mmu-miR-33-5p): 0.26
- SALvHet Z Score (mmu-miR-34a-5p): −0.03
- SALvHet Z Score (mmu-miR-34b-5p): 0.38
- SALvHet Z Score (mmu-miR-34c-3p): −0.37
- SALvHet Z Score (mmu-miR-34c-5p): 0.07
- Sal Direction Opposite ISRIB? (mmu-miR-34c-5p): yes
- SALvHet Z Score (mmu-miR-96-5p): 0.13
- Sal Direction Opposite ISRIB? (mmu-miR-96-5p): yes
- SALvHet Z Score (mmu-miR-98-5p): −0.22
- SALvHet Z Score (mmu-miR-99a-5p): −0.17
- SALvHet Z Score (mmu-miR-101b-3p): 0.64
- SALvHet Z Score (mmu-miR-106b-3p): −0.23
- SALvHet Z Score (mmu-miR-106b-5p): 0.04
- SALvHet Z Score (mmu-miR-124-3p): −0.72
- SALvHet Z Score (mmu-miR-125b-1-3p): −0.41
- SALvHet Z Score (mmu-miR-130b-3p): 0.32
- Sal Direction Opposite ISRIB? (mmu-miR-130b-3p): yes
- Sal Direction Opposite ISRIB? (mmu-miR-135a-5p): yes
- SALvHet Z Score (mmu-miR-136-3p): 0.08
- SALvHet Z Score (mmu-miR-140-3p): 0.50
- Sal Direction Opposite ISRIB? (mmu-miR-140-3p): yes
- SALvHet Z Score (mmu-miR-146a-5p): 0.02
- SALvHet Z Score (mmu-miR-148a-3p): −0.02
- SALvHet Z Score (mmu-miR-148b-3p): −0.07
- SALvHet Z Score (mmu-miR-149-5p): 0.03
- SALvHet Z Score (mmu-miR-151-5p): 0.12
- SALvHet Z Score (mmu-miR-152-3p): −0.02
- SALvHet Z Score (mmu-miR-181a-5p): −0.23
- SALvHet Z Score (mmu-miR-181b-5p): −0.32
- SALvHet Z Score (mmu-miR-181c-5p): 0.26
- SALvHet Z Score (mmu-miR-182-5p): 0.01
- Sal Direction Opposite ISRIB? (mmu-miR-182-5p): yes
- SALvHet Z Score (mmu-miR-183-5p): −0.06
- SALvHet Z Score (mmu-miR-185-5p): 0.15
- SALvHet Z Score (mmu-miR-186-5p): 0.00
- SALvHet Z Score (mmu-miR-187-3p): 0.30
- Sal Direction Opposite ISRIB? (mmu-miR-187-3p): yes
- SALvHet Z Score (mmu-miR-188-5p): −0.05
- SALvHet Z Score (mmu-miR-190b-5p): 0.15
- SALvHet Z Score (mmu-miR-191-5p): 0.04
- SALvHet Z Score (mmu-miR-192-5p): 0.09
- Sal Direction Opposite ISRIB? (mmu-miR-192-5p): yes
- SALvHet Z Score (mmu-miR-194-5p): 0.18
- SALvHet Z Score (mmu-miR-199a-3p): −0.10
- SALvHet Z Score (mmu-miR-199b-3p): −0.10
- SALvHet Z Score (mmu-miR-206-3p): −0.27
- SALvHet Z Score (mmu-miR-214-5p): 0.04
- SALvHet Z Score (mmu-miR-219a-5p): 0.34
- SALvHet Z Score (mmu-miR-223-3p): −0.01
- SALvHet Z Score (mmu-miR-224-5p): −0.27
- SALvHet Z Score (mmu-miR-296-3p): 0.05
- Sal Direction Opposite ISRIB? (mmu-miR-296-3p): yes
- SALvHet Z Score (mmu-miR-298-5p): 0.16
- Sal Direction Opposite ISRIB? (mmu-miR-298-5p): yes
- SALvHet Z Score (mmu-miR-299a-3p): 0.39
- SALvHet Z Score (mmu-miR-301a-3p): 0.35
- SALvHet Z Score (mmu-miR-301b-3p): 0.01
- SALvHet Z Score (mmu-miR-320-3p): −0.21
- SALvHet Z Score (mmu-miR-322-5p): −0.07
- SALvHet Z Score (mmu-miR-324-3p): 0.16
- SALvHet Z Score (mmu-miR-335-Sp): −0.35
- SALvHet Z Score (mmu-miR-340-5p): 0.31
- SALvHet Z Score (mmu-miR-344-3p): 0.44
- Sal Direction Opposite ISRIB? (mmu-miR-344-3p): yes
- SALvHet Z Score (mmu-miR-350-3p): 0.08
- SALvHet Z Score (mmu-miR-361-5p): −0.15
- SALvHet Z Score (mmu-miR-362-3p): 0.47
- Sal Direction Opposite ISRIB? (mmu-miR-362-3p): yes
- SALvHet Z Score (mmu-miR-362-5p): −0.10
- SALvHet Z Score (mmu-miR-378a-3p): −0.12
- SALvHet Z Score (mmu-miR-450a-5p): 0.09
- SALvHet Z Score (mmu-miR-450b-3p): −0.29
- SALvHet Z Score (mmu-miR-451a): 0.38
- SALvHet Z Score (mmu-miR-483-5p): −1.22
- SALvHet Z Score (mmu-miR-500-3p): 0.10
- SALvHet Z Score (mmu-miR-503-3p): −0.70
- SALvHet Z Score (mmu-miR-532-5p): −0.06
- SALvHet Z Score (mmu-miR-542-3p): 0.33
- SALvHet Z Score (mmu-miR-542-5p): 0.39
- Sal Direction Opposite ISRIB? (mmu-miR-542-5p): yes
- SALvHet Z Score (mmu-miR-582-3p): −0.45
- SALvHet Z Score (mmu-miR-652-3p): 0.34
- SALvHet Z Score (mmu-miR-671-5p): 0.26
- Sal Direction Opposite ISRIB? (mmu-miR-671-5p): yes
- SALvHet Z Score (mmu-miR-700-3p): 0.16
- SALvHet Z Score (mmu-miR-708-5p): 0.58
- SALvHet Z Score (mmu-miR-872-5p): 0.19
- SALvHet Z Score (mmu-miR-1291): −0.06
- SALvHet Z Score (mmu-miR-1843a-5p): 0.07
- SALvHet Z Score (mmu-miR-3102-3p): 0.35
- SALvHet Z Score (mmu-miR-3535): −0.66
- SALvHet Z Score (mmu-miR-5121): 0.22
- Sal Direction Opposite ISRIB? (mmu-miR-5121): yes
- Sal Direction Opposite ISRIB? (mmu-miR-30h-5p): yes
- SALvHet Z Score (mmu-miR-30d-5p): −0.11
- SALvHet Z Score (mmu-miR-344d-3p): −1.00
